# According to patent publication US5629430A, “Trifluoromethylpyrroloindolecarboxylic acid ester and process for production thereof” (Kyorin Pharmaceutical Co., Ltd., priority 1992, dated 1997):
# System: P388 mouse leukemia cells
# Assay: Activity against tumor cell growth (P388, MTT, 72 h)
# Format: cell-based
# Details: P388 mouse leukemia cells, 72 h, 37° C., MTT; read-out: IC50 (50% growth inhibition concentration)
# Experimental: Using a culture medium RPMI1640 supplemented with 10% inactivated bovine fetal serum, 2 mM glutamine, 100 μ/ml kanamycin sulfate, and 5 μM 2-hydroxyethyldisulfide (This culture medium is hereinafter referred to simply as "culture medium"), P388 mouse leukemia cells were diluted to a concentration of 1.5×10^5 cells/ml in the culture medium, and were placed in each well of 96-well multiplate in 60 μl portions. Separately, the test compound was dissolved in dimethylsulfoxide and was adequately diluted with the culture medium. The diluted solution containing test compound was added to the wells of the above plate respectively in 60 μl portions. Then the cells were incubated in a CO2 -incubator (5% CO2, 37° C.) for 72 hours.
# The surviving cell numbers were measured according to the Mosmann's method (J. Immunol. Meth., 65 55-63, 1983) as follows. A 2.5 mg/ml solution of MTT (3-[4,5-dimethylthiazol-2-yl]-2,5-diphenyltetrazolium bromide) in Dulbecco's phosphate buffer solution (PBS) was prepared and added to each of the wells by 20 μl. The cells were further incubated for 3 hours. A 150 μl portion of 0.04N hydrochloric acid-isopropanol solution was added to each of the wells, and MTT-formazane formed was allowed to dissolve by pipetting. The absorbance of the solutions was measured at 540 nm taking the no-cell-containing [solution as the background. The 50% growth inhibition concentration (ICs50) was calculated from ratio of the absorbances of the treated samples to the absorbance of the no-medicine-treated sample, and from the concentration of the test compound.
row,SMILES,IC50
1,"COC(=O)c1c(C(F)(F)F)[nH]c2c(O)cc3c(c12)C(CBr)CN3C(=O)c1cc2cc(NC(=O)c3cc4cc(OC)c(OC)c(OC)c4[nH]3)ccc2[nH]1 (centres unmarked) [Example 39, Methyl 1-bromomethyl-5-hydroxy-7-trifluoromethyl-3-[5[(5,6,7-trimethoxy1H-indol-2-ylcarbonyl)amino]-1H-indol-2-ylcarbonyl]-1,2,3,6-tetrahydropyrrolo[3,2-e]indole-8-carboxylate]",0.2 ng/mL
2,"COC(=O)c1c(C(F)(F)F)[nH]c2c(O)cc3c(c12)C(CBr)CN3C(=O)c1cc2cc(NC(=O)c3cc4c(OC)c(OC)c(OC)cc4cn3)ccc2[nH]1 (centres unmarked) [Example 44, Methyl 1-bromomethyl-5-hydroxy-7-trifluoromethyl-3-[5-[(5,6,7-trimethoxyisoquinolin-3-ylcarbonyl)amino]-1H-indol-2-ylcarbonyl]-1,2,3,6-tetrahydropyrrolo[3,2-e]indole-8-carboxylate]",0.07 ng/mL
3,"COC(=O)c1c(C(F)(F)F)[nH]c2c1C13CC1CN(C(=O)c1cc4cc(NC(=O)c5cc6c(cn5)[nH]c5ccccc56)ccc4[nH]1)C3=CC2=O (centres unmarked) [Example 33, Methyl 2-[5-[(9H-pyrido[3,4-b]indol-3-ylcarbonyl)amino]-1H-indol-2-ylcarbonyl]-6-trifluoromethyl-1,2,8,8a-tetrahydrocyclopropa[c]pyrrolo[3,2-e]indol-4 (5H)-one-7-carboxylate]",0.17 ng/mL
4,"COC(=O)c1c(C(F)(F)F)[nH]c2c(O)cc3c(c12)[C@H](CCl)CN3C(=O)c1cc2cc(NC(=O)OC(C)(C)C)ccc2[nH]1 [Example 64, Methyl (1S)-3-[5-(t-butoxycarbonyl)amino-1H-indol-2-ylcarbonyl]-1-chloromethyl-5-hydroxy-7-trifluoromethyl-1,2,3,6-tetrahydropyrrolo[3,2-e]indole-8-carboxylate]",3.9 ng/mL
5,"COC(=O)c1c(C(F)(F)F)[nH]c2c1C13CC1CN(C(=O)c1cc4cc(NC(=O)c5cnc6ccccc6c5)ccc4[nH]1)C3=CC2=O (centres unmarked) [Example 30, Methyl 3-[5-[(quinoline-3-ylcarbonyl)amino]-1H-indol-2-ylcarbonyl]-6-trifluoromethyl-1,2,8,8a-tetrahydrocyclopropa[c]pyrrolo[3,2-e]indol-4 (5H)-one-7-carboxylate]",0.22 ng/mL
6,"COC(=O)c1c(C(F)(F)F)[nH]c2c(O)cc3c(c12)C(CBr)CN3C(=O)c1cc2cc(NC(=O)c3ccc4ccccc4c3)ccc2[nH]1 (centres unmarked) [Example 41, Methyl 1-bromomethyl-5-hydroxy-3-[5-[(naphthalene-3-ylcarbonyl)amino]-1H-indol-2-ylcarbonyl]-7-trifluoromethyl-1,2,3,6-tetrahydropyrrolo[3,2-e]indole-8-carboxylate]",1.6 ng/mL
7,"COC(=O)c1c(C(F)(F)F)[nH]c2c(O)cc3c(c12)[C@H](CCl)CN3C(=O)c1cc2ccc(OC)cc2o1 [Example 68, Methyl (1S)-1-chloromethyl-5-hydroxy-3-(6-methoxybenzofuran-2-ylcarbonyl)-7-trifluoromethyl-1,2,3,6-tetrahydropyrrolo[3,2-e]indole-8-carboxylate]",0.051 ng/mL
8,"COC(=O)c1c(C(F)(F)F)[nH]c2c(O)cc3c(c12)[C@H](CCl)CN3C(=O)c1cc2cc(OC)c(OC)c(OC)c2o1 [Example 69, Methyl (1S)-1-chloromethyl-5-hydroxy-7-trifluoromethyl-3-(5,6,7-trimethoxybenzofuran-2-ylcarbonyl)-1,2,3,6-tetrahydropyrrolo[3,2-e]indole-8-carboxylate]",0.046 ng/mL
9,"COC(=O)c1c(C(F)(F)F)[nH]c2c(O)cc3c(c12)C(CBr)CN3C(=O)c1cc2cc(NC(=O)c3cc4c(OC)c(OC)c(OC)cc4[nH]3)ccc2[nH]1 (centres unmarked) [Example 40, Methyl 1-bromomethyl-5-hydroxy-7-trifluoromethyl-3-[5-[(4,5,6-trimethoxy1H-indol-2-ylcarbonyl)amino]-1H-indol-2-ylcarbonyl]-1,2,3,6-tetrahydropyrrolo[3,2-e]indole-8-carboxylate]",0.08 ng/mL
10,"COC(=O)c1c(C(F)(F)F)[nH]c2c(O)cc3c(c12)C(CBr)CN3C(=O)c1cc2cc(NC(=O)c3cnc4ccccc4c3)ccc2[nH]1 (centres unmarked) [Example 42, Methyl 1-bromomethyl-5-hydroxy-3-[5-[(quinoline-3-ylcarbonyl)amino]-1H-indol-2-ylcarbonyl]-7-trifluoromethyl-1,2,3,6-tetrahydropyrrolo[3,2-e]indole-8-carboxylate]",0.13 ng/mL
11,"COC(=O)c1c(C(F)(F)F)[nH]c2c(O)cc3c(c12)[C@H](CCl)CN3C(=O)c1cc2cccc(OC)c2o1 [Example 70, Methyl (1S)-1-chloromethyl-5-hydroxy-3-(7-methoxybenzofuran-2-ylcarbonyl)-7-trifluoromethyl-1,2,3,6-tetrahydropyrrolo[3,2-e]indole-8-carboxylate]",2 ng/mL
12,"COC(=O)c1c(C(F)(F)F)[nH]c2c(O)cc3c(c12)C(CBr)CN3C(=O)c1cc2cc(NC(=O)c3cc4c(cn3)[nH]c3ccccc34)ccc2[nH]1 (centres unmarked) [Example 45, Methyl 1-bromomethyl-5-hydroxy-3-[5-[(9H-pyrido[3,4-b]indol-3-ylcarbonyl)amino]-1H-indol-2-ylcarbonyl]-7-trifluoromethyl-1,2,3,6-tetrahydropyrrolo[3,2-e]indole-8-carboxylate]",0.12 ng/mL
13,"COC(=O)c1c(C(F)(F)F)[nH]c2c(O)cc3c(c12)C(CCl)CN3C(=O)c1cc2cc(NC(=O)c3cc4ccccc4[nH]3)ccc2[nH]1 (centres unmarked) [Example 9, Methyl 1-chloromethyl-5-hydroxy-3-[5-[(1H-indol-2-ylcarbonyl)amino]-1H-indol-2-ylcarbonyl]-7-trifluoromethyl-1,2,3,6-tetrahydropyrrolo[3,2-e]indole-8-carboxylate]",0.76 ng/mL
14,"COC(=O)c1c(C(F)(F)F)[nH]c2c(O)cc3c(c12)[C@H](CCl)CN3C(=O)c1cc2cc(NC(=O)CN(C)C)ccc2[nH]1 [Example 65, Methyl (1S)-1-chloromethyl-3-[5 (dimethylaminomethylcarbonyl)amino-1H-indol-2-ylcarbonyl]-5-hydroxy-7-trifluoromethyl-1,2,3,6-tetrahydropyrrolo[3,2-e]indole-8-carboxylate]",0.11 ng/mL
15,"COC(=O)c1c(C(F)(F)F)[nH]c2c(O)cc3c(c12)[C@H](CCl)CN3C(=O)c1cc2c(OC)cccc2o1 [Example 66, Methyl (1S)-1-chloromethyl-5-hydroxy-3-(4-methoxybenzofuran-2-ylcarbonyl)-7-trifluoromethyl-1,2,3,6-tetrahydropyrrolo[3,2-e]indole-8-carboxylate]",0.77 ng/mL
16,"COC(=O)c1c(C(F)(F)F)[nH]c2c1C13CC1CN(C(=O)c1cc4cc(NC(=O)c5cc6cccc(OC)c6o5)ccc4[nH]1)C3=CC2=O (centres unmarked) [Example 25, Methyl 2-[5-[(7-methoxybenzofuran-2-ylcarbonyl)amino]-1H-indol-2-ylcarbonyl]-6-trifluoromethyl-1,2,8,8a-tetrahydrocyclopropa[c]pyrrolo[3,2-e]indole-4 (5H)-one-7-carboxylate]",0.63 ng/mL
17,"COC(=O)c1c(C(F)(F)F)[nH]c2c1C13CC1CN(C(=O)c1cc4cc(NC(=O)c5ccc6ccccc6c5)ccc4[nH]1)C3=CC2=O (centres unmarked) [Example 29, Methyl 3-[5-[(naphthalene-3-ylcarbonyl)amino]1H-indol-2-ylcarbonyl]-6-trifluoromethyl-1,2,8,8a-tetrahydrocyclopropa[c]pyrrolo[3,2-e]indol-4 (5H)-one-7-carboxylate]",1.2 ng/mL
18,"COC(=O)c1c(C(F)(F)F)[nH]c2c(O)cc3c(c12)[C@H](CCl)CN3C(=O)/C=C/c1ccc(OC)cc1 [Example 74, Methyl (1S)-1-chloromethyl-5-hydroxy-3-[2-(4-methoxyphenyl)ethylene-1-ylcarbonyl]-7-trifluoromethyl-1,2,3,6-tetrahydropyrrolo[3,2-e]indole-8-carboxylate]",1.3 ng/mL
19,"COC(=O)c1c(C(F)(F)F)[nH]c2c(O)cc3c(c12)[C@H](CCl)CN3C(=O)c1cc2cc(OC)ccc2o1 [Example 67, Methyl (1S)-1-chloromethyl-5-hydroxy-3-(5-methoxybenzofuran-2-ylcarbonyl)-7-trifluoromethyl-1,2,3,6-tetrahydropyrrolo[3,2-e]indole-8-carboxylate]",0.026 ng/mL
20,"COC(=O)c1c(C(F)(F)F)[nH]c2c1[C@@]13C[C@@H]1CN(C(=O)c1cc4cc(NC(=O)OC(C)(C)C)ccc4[nH]1)C3=CC2=O [Example 84, Methyl (7bR, 8aS)-2-[5-(t-butoxycarbonyl)amino-1H-indole-2-ylcarbonyl]-6-trifluoromethyl-1,2,8,8a-tetrahydrocyclopropa[c]pyrrolo[3,2-e]indole-4 (5H)-one-7-carboxylate]",1.7 ng/mL
